What is called IC50 is the concentration that gives 50% inhibition.

The target of one experiment is human DHODH (Homo sapiens (Human), UniProt Q02127). The experiment is described as follows: DHODH Enzymatic Assay. Type of experiment: biochemical. The following applies: purified human DHODH, DCIP absorbance, end-point mode; read-out: hDHODH IC50. An outline of the steps:
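Purified human DHODH in […] HEPES pH 7.5, 150 mM NaCl, 0.5 mM EDTA, 0.1% Triton X-100; reaction started with substrate mix of 20 mM DHO, 5 mM CoQ6, 1 mM DCIP. End-point read as DCIP reduction (absorbance ~600 nm) after brequinar quench.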

The subject of experiment [1] is MOLM-13 cells (human acute myeloid leukemia cells). Description: MOLM-13 Cellular Assay. Type of experiment: cell-based. Conditions: Homo sapiens, MOLM-13, 72 h, 72 hours exposure, cell viability by CellTiter-Glo. In outline: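 MOLM-13 AML cells, seeded at 5,000/well in RPMI 1640 with 10% FBS, were treated with compounds right after seeding for 72 h at 37 °C, 5% CO2. Viability read by CellTiter-Glo luminescence.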
A general note: Cellular ATP, detected with luciferase, serves as a proxy for viable cell number.

human DHODH, sequence (Q02127 whole entry): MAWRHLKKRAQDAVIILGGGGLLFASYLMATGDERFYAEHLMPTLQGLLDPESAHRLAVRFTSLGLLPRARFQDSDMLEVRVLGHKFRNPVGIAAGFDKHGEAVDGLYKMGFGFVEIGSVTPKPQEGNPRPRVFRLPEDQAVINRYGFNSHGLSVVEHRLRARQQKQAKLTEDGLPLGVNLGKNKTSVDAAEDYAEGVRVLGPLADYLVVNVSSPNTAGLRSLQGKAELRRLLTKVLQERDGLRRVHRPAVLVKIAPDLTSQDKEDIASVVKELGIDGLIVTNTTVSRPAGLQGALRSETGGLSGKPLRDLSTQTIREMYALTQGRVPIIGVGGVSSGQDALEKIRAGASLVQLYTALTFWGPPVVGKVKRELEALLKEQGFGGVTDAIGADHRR

Turning to `CCn1c(CO)nn(-c2cc3c(C(C)C)cn(-c4c(C)n[nH]c4Cl)c(=O)c3cc2F)c1=O` [Example 31, 2-(5-Chloro-3-methyl-1H-pyrazol-4-yl)-6-(4-ethyl-3-(hydroxymethyl)-5-oxo-4,5-dihydro-1H-1,2,4-triazol-1-yl)-7-fluoro-4-isopropylisoquinolin-1(2H)-one], the figures for the IC50 (at human DHODH; in experiment [1]) were 0.764 nM and 6 nM, respectively.

Turning to `C=C(C)c1cn(-c2ccccc2C)c(=O)c2cc(F)c(-n3nc(CO)n(CC)c3=O)cc12` [Example 46, 6-(4-Ethyl-3-(hydroxymethyl)-5-oxo-4,5-dihydro-1H-1,2,4-triazol-1-yl)-7-fluoro-4-(prop-1-en-2-yl)-2-(o-tolyl)isoquinolin-1(2H)-one], the IC50 at human DHODH amounted to 0.746 nM; in experiment [1], 0.3 nM.

Turning to `C=C(C)c1cn(-c2ccccc2Cl)c(=O)c2ccc(-n3nc(CO)n(CC)c3=O)cc12` [Example 14, 2-(2-Chlorophenyl)-6-(4-ethyl-3-(hydroxymethyl)-5-oxo-4,5-dihydro-1H-1,2,4-triazol-1-yl)-4-(prop-1-en-2-yl)isoquinolin-1(2H)-one], the IC50 on human DHODH worked out at 0.724 nM; in experiment [1] it was 0.4 nM.

Take `CCn1c(CO)nn(-c2cc3c(C(C)C)cn([C@H]4CCC[C@@H]4C)c(=O)c3cc2F)c1=O` (stereo in doubt) [Example 124, 6-(4-Ethyl-3-(hydroxymethyl)-5-oxo-4,5-dihydro-1H-1,2,4-triazol-1-yl)-7-fluoro-4-isopropyl-2-((1S*,2S*)-2-methylcyclopentyl)isoquinolin-1(2H)-one]: the IC50 on human DHODH was 1.36 nM; in experiment [1] it was 0.9 nM.

As to `CCn1c(CO)nn(-c2cc3c(C(C)C)cn(-c4c(C)cccc4F)c(=O)c3cc2F)c1=O` [Example 69, 6-(4-Ethyl-3-(hydroxymethyl)-5-oxo-4,5-dihydro-1H-1,2,4-triazol-1-yl)-7-fluoro-2-(2-fluoro-6-methylphenyl)-4-isopropylisoquinolin-1(2H)-one], the IC50 on human DHODH amounted to 0.435 nM; in experiment [1], 0.7 nM.

Turning to `CCn1c(CO)nn(-c2ccc3c(=O)n(-c4cccc(F)c4)cc(-c4ccccc4)c3c2)c1=O` [Example 4, 6-(4-Ethyl-3-(hydroxymethyl)-5-oxo-4,5-dihydro-1H-1,2,4-triazol-1-yl)-2-(3-fluorophenyl)-4-phenylisoquinolin-1(2H)-one], the IC50 on human DHODH amounted to 177 nM; in experiment [1], 100 nM.

For `CCn1c(CO)nn(-c2cc3c([C@@H](C)C(F)(F)F)cn(-c4ccccc4C)c(=O)c3cc2F)c1=O` [Example 102, (R)-6-(4-Ethyl-3-(hydroxymethyl)-5-oxo-4,5-dihydro-1H-1,2,4-triazol-1-yl)-7-fluoro-2-(o-tolyl)-4-(1,1,1-trifluoropropan-2-yl)isoquinolin-1(2H)-one], the IC50 at human DHODH worked out at 0.26 nM; in experiment [1], 0.3 nM.

Consider `CCn1c(CO)nn(-c2nc3c(C(C)C)nn(-c4ccccc4C)c(=O)c3cc2F)c1=O` [Example 34, 2-(4-Ethyl-3-(hydroxymethyl)-5-oxo-4,5-dihydro-1H-1,2,4-triazol-1-yl)-3-fluoro-8-isopropyl-6-(o-tolyl)pyrido[2,3-d]pyridazin-5(6H)-one], for which the 50% inhibitory concentration (IC50) on human DHODH was found to be 1.97 nM; in experiment [1] it was 4 nM.

Turning to `CCn1c(CO)nn(-c2cc3c(C4(C)CC4)cn(-c4c(F)cccc4Cl)c(=O)c3cc2F)c1=O` [Example 58, 2-(2-Chloro-6-fluorophenyl)-6-(4-ethyl-3-(hydroxymethyl)-5-oxo-4,5-dihydro-1H-1,2,4-triazol-1-yl)-7-fluoro-4-(1-methylcyclopropyl)isoquinolin-1(2H)-one], the IC50 on human DHODH worked out at 8.81 nM; in experiment [1] it was 4 nM.

As to `C=C(C)c1cn(-c2ccc(F)cc2C)c(=O)c2cc(F)c(-n3nc(CO)n(CC)c3=O)cc12` [Example 76, 6-(4-Ethyl-3-(hydroxymethyl)-5-oxo-4,5-dihydro-1H-1,2,4-triazol-1-yl)-7-fluoro-2-(4-fluoro-2-methylphenyl)-4-(prop-1-en-2-yl)isoquinolin-1(2H)-one], the IC50 came out at 1.5 nM on human DHODH and 4 nM in experiment [1].

For the compound `CCn1c(CO)nn(-c2cc3c(C(C)C)nn(-c4c(F)cccc4Cl)c(=O)c3cc2F)c1=O` [Example 54, 2-(2-Chloro-6-fluorophenyl)-6-(4-ethyl-3-(hydroxymethyl)-5-oxo-4,5-dihydro-1H-1,2,4-triazol-1-yl)-7-fluoro-4-isopropylphthalazin-1(2H)-one], the IC50 on human DHODH turned out to be 0.433 nM; in experiment [1], 0.4 nM.

`CCn1c(CO)nn(-c2cc3c(C(C)C)cn([C@@H]4CCC[C@H]4C)c(=O)c3cc2F)c1=O` (stereo in doubt) [Example 123, 6-(4-Ethyl-3-(hydroxymethyl)-5-oxo-4,5-dihydro-1H-1,2,4-triazol-1-yl)-7-fluoro-4-isopropyl-2-((1R*,2R*)-2-methylcyclopentyl)isoquinolin-1(2H)-one]: the concentration for half-maximal inhibition (IC50) was determined as 16.8 nM on human DHODH and 9 nM in experiment [1].

For `CCn1c(CO)nn(-c2cc3c(C(C)C)cn(-c4cccnc4C)c(=O)c3cc2F)c1=O` [Example 138, 6-(4-Ethyl-3-(hydroxymethyl)-5-oxo-4,5-dihydro-1H-1,2,4-triazol-1-yl)-7-fluoro-4-isopropyl-2-(2-methylpyridin-3-yl)isoquinolin-1(2H)-one], the IC50 was 80.4 nM on human DHODH and more than 100 nM in experiment [1].

`CCn1c(CO)nn(-c2cc3c(C(C)C)cn(-c4cc(C)ccc4F)c(=O)c3cc2F)c1=O` [Example 41, 6-(4-Ethyl-3-(hydroxymethyl)-5-oxo-4,5-dihydro-1H-1,2,4-triazol-1-yl)-7-fluoro-2-(2-fluoro-5-methylphenyl)-4-isopropylisoquinolin-1(2H)-one]: the IC50 at human DHODH was 2.98 nM; in experiment [1], 2 nM.

On to `C=C(C)c1cn(-c2c(C)cccc2F)c(=O)c2cc(F)c(-n3nc(CO)n(CC)c3=O)cc12` [Example 73, 6-(4-Ethyl-3-(hydroxymethyl)-5-oxo-4,5-dihydro-1H-1,2,4-triazol-1-yl)-7-fluoro-2-(2-fluoro-6-methylphenyl)-4-(prop-1-en-2-yl)isoquinolin-1(2H)-one], for which the IC50 worked out at 0.562 nM on human DHODH and 0.7 nM in experiment [1].

As for `CCn1c(CO)nn(-c2cc3c(C(C)C)cn(-c4cc(OC)ccc4F)c(=O)c3cc2F)c1=O` [Example 63, 6-(4-Ethyl-3-(hydroxymethyl)-5-oxo-4,5-dihydro-1H-1,2,4-triazol-1-yl)-7-fluoro-2-(2-fluoro-5-methoxyphenyl)-4-isopropylisoquinolin-1(2H)-one], the IC50 was 2.76 nM on human DHODH and 2 nM in experiment [1].

As to `C=C(C)c1cn(-c2c(C)ccnc2OC)c(=O)c2cc(F)c(-n3nc(CO)n(CC)c3=O)cc12` [Example 59, 6-(4-Ethyl-3-(hydroxymethyl)-5-oxo-4,5-dihydro-1H-1,2,4-triazol-1-yl)-7-fluoro-2-(2-methoxy-4-methylpyridin-3-yl)-4-(prop-1-en-2-yl)isoquinolin-1(2H)-one], the IC50 turned out to be 2.23 nM at human DHODH and 5 nM in experiment [1].

In the case of `C=C(C)c1cn(-c2cc(C)ccc2C)c(=O)c2cc(F)c(-n3nc(CO)n(CC)c3=O)cc12` [Example 87, 2-(2,5-Dimethylphenyl)-6-(4-ethyl-3-(hydroxymethyl)-5-oxo-4,5-dihydro-1H-1,2,4-triazol-1-yl)-7-fluoro-4-(prop-1-en-2-yl)isoquinolin-1(2H)-one], the concentration for half-maximal inhibition (IC50) at human DHODH stood at 0.292 nM; in experiment [1], 0.9 nM.

For the compound `CCn1c(CO)nn(-c2cc3c(C(C)C)cn(-c4cc(C)ncc4C)c(=O)c3cc2F)c1=O` [Example 135, 2-(2,5-Dimethylpyridin-4-yl)-6-(4-ethyl-3-(hydroxymethyl)-5-oxo-4,5-dihydro-1H-1,2,4-triazol-1-yl)-7-fluoro-4-isopropylisoquinolin-1(2H)-one], the IC50 at human DHODH was found to be 6.93 nM; in experiment [1] it was 50 nM.

As to `CCn1c(CO)nn(-c2cc3c(C(C)C)cn(-c4ccccc4F)c(=O)c3cc2F)c1=O` [Example 77, 6-(4-Ethyl-3-(hydroxymethyl)-5-oxo-4,5-dihydro-1H-1,2,4-triazol-1-yl)-7-fluoro-2-(2-fluorophenyl)-4-isopropylisoquinolin-1(2H)-one], the IC50 amounted to 1.86 nM at human DHODH and 3 nM in experiment [1].

The record behind these values is patent publication US11505536B2, “Dihydroorotate dehydrogenase inhibitors” (Janssen Biotech, Inc., priority 2019, dated 2022).
